# Tests used:
# [1] = tested on: arthritis induced by monoclonal antibodies raised against type II collagen, plus lipopolysaccharide; assay: Inflammation, Collagen Arthritis, mAb in Mice (hind paw volume); type: in vivo, BALB/c mice
# Experimental: Galectin-3 Ab was evaluated for possible anti-inflammatory activity in BALB/c mice with arthritis induced by monoclonal antibodies (mAb) raised against type II Collagen, plus lipoplysaccharide. Galectin-3 Ab (1, 0.5 and 0.25 mg/mouse×3) was administered intraperitoneally once daily for 3 consecutive days starting on day 3. Volumes of both hind paws were measured on days 5, 7, 10, 14 and 17 and the sum of both hind paw volumes was calulated. A 30% percent or more reduction (−30%) relative to the vehicle-treated group indicates significant.
# Galectin-3 Ab, B2C10 from Pharmingen, was dissolved in distilled water. Test substance at 1, 0.5 and 0.25 mg/mouse and vehicle were each administered intraperitoneally once daily for 3 consecutive days starting on day 3. The dosing volume was 0.2 ml/mouse for the test compound or 10 ml/kg (PO) for indomethacin. All treatments are summarized below:
# Collagen Arthritis, mAb Groups of 7 BALB/c strain mice, 6-7 weeks of age, were used for the induction of arthritis by monoclonal antibodies (mAbs) raised against type II collagen, plus lipopolysaccharide (LPS). A combination of 4 different mAbs (D8, F10, DI-2G and A2) totaling 4 mg/mouse was administered to the animals intravenously on day 0, followed by intravenous challenge with […] of LPS 72 hours later (day3). From one hour after LPS injection, Galectin-3 Ab (1, 0.5 and 0.25 mg/mouse) and vehicle were each administered intraperitoneally once daily for 3 consecutive days starting on day 3. Whereas, indomethacin which served as the positive control was administered orally (3 mg/kg) once daily for 3 consecutive days at the same time schedule as test compound. For each animal, volumes of both hind paws were measured using a plethysmometer with water cell (12 mm diameter) on Days 0, 5, 7, 10, 14 and 17. Percent inhibition of increase in volume was calculated by the following formula: Inhibition (%): [1−(Tn−T0)/(Cn−C0)]×100% • Where: • C0 (Cn): volume of day 0 (day n) in vehicle control • T0 (Tn): volume of day 0 (day n) in test compound-treated group.
# Reduction of edema in the hind paws by 30% or more (^3 30%) is considered significant. In addition, body weight was documented during the testing period of day 0, 5, 7, 10, 14 and 17 in each animal percentage of body weight of each compound group at time points were calculated referring to the vehicle control group at each measurement day as 100%.
# rheumatoid arthritis = conditions: methotrexate treatment, known effect; cited from earlier work
# [2] = tested on: peripheral blood monocytes from healthy donors and rheumatoid arthritis patients; assay: Monocyte chemotaxis assay (96-well chemotaxis plates); type: cell-based, human; conditions: for migration of monocytes in combination with galectin-3: FIG. 14B, 14C
# Experimental: Peripheral blood mononuclear cells (PBMCs) were isolated from 6 healthy volunteer donors and 6 rheumatoid arthritis (RA) patients following informed consent and in accordance with protocols approved by the AMC Medical Ethics committee. Donor blood was diluted with cold PBS and PBMCs isolated by centrifugation over Ficoll. The PBMC layer was recovered and washed twice with PBS. Cells were counted, and monocytes isolated using a Dynal monocytes negative isolation kit as per the manufacturer's instructions. Monocytes were resuspended at 2×10^6 cells/ml in RPMI medium containing 0.5% fetal calf serum.
# Chemotaxis assays were performed using 96-well disposable chemotaxis plates (Neuroprobe, 8 μm diameter pore size). Wells were preincubated for 1 hour at 37° C. with medium alone (RPMI containing 0.5% fetal calf serum), murine anti-human galectin-3 antibody B2C10 (0.1, 1 or 3 μg/ml) or lactose (10 mM). Lactose is a non-specific inhibitor of galectin-3. Purified recombinant human galectin-3 (1, 10 or 100 nM) was also included in the preincubation step. 5×10^4 monocytes obtained from healthy donors were added to the top of the filter in triplicate wells and cells allowed to migrate for 90 minutes at 37° C. The filter was then washed with PBS, and adhering non-migrating cells removed from the top of the filter by wiping. Migrating cells within the filter Were visualized by staining with crystal violet solution and washing with water. Following air-drying overnight, a computer digital imaging analyzer was used to capture 20 high-powered (400× magnification) fields encompassing the complete transwell filter, and migrating cells counted manually. FIG. 12 provides the relative amount migration (chemotaxis) in the presence of varying levels of galectin-3 and inhibitors of galectin-3 activity (B2C10 and lactose).
# In a second experiment, wells were preincubated for 1 hour at 37° C. with medium alone (RPMI containing 0.5% fetal calf serum), murine anti-human galectin-3 antibody B2C10 (0.1, 1 or 3 μg/ml) or lactose (10 mM). Lactose is a non-specific inhibitor of galectin-3. Purified recombinant human galectin-3 (1, 10 or 100 nM) was also included in the preincubation step. 5×10^4 monocytes obtained from rheumatoid arthritis patients were added to the top of the filter in triplicate wells and cells allowed to migrate for 90 minutes at 37° C. The filter was then processed as described above and migrating cells were counted manually. […]
# Monocytes from 6 rheumatoid arthritis patient were stimulated with 6 different synovial fluids and monocyte chemotaxis was measured as described above in the presence of different concentrations of galectin-3 blocking antibody. […]
molecule,measurement,setting,value
"COc1ccc2c(c1)c(CC(=O)O)c(C)n2C(=O)c1ccc(Cl)cc1 [Indomethacin, indomethacin]",(%) Reduction of Edema vs. Vehicle Control,"[1]; Day 5, PO 3 mg/kg × 3, parenthesis = significant",(94) %
same,(%) Reduction of Edema vs. Vehicle Control,"[1]; Day 5, PO 3 mg/kg × 3, parenthesis = significant, listed as indomethacin",94%
same,(%) Reduction of Edema vs. Vehicle Control,"[1]; Day 7, PO 3 mg/kg × 3, parenthesis = significant",(70) %
same,(%) Reduction of Edema vs. Vehicle Control,"[1]; Day 7, PO 3 mg/kg × 3, parenthesis = significant, listed as indomethacin",70%
same,(%) Reduction of Edema vs. Vehicle Control,"[1]; Day 10, PO 3 mg/kg × 3, parenthesis = significant",(85) %
same,(%) Reduction of Edema vs. Vehicle Control,"[1]; Day 10, PO 3 mg/kg × 3, parenthesis = significant, listed as indomethacin",85%
same,(%) Reduction of Edema vs. Vehicle Control,"[1]; Day 14, PO 3 mg/kg × 3, parenthesis = significant",(85) %
same,(%) Reduction of Edema vs. Vehicle Control,"[1]; Day 14, PO 3 mg/kg × 3, parenthesis = significant, listed as indomethacin",85%
same,(%) Reduction of Edema vs. Vehicle Control,"[1]; Day 17, PO 3 mg/kg × 3, parenthesis = significant",(84) %
same,(%) Reduction of Edema vs. Vehicle Control,"[1]; Day 17, PO 3 mg/kg × 3, parenthesis = significant, listed as indomethacin",84%
"CN(Cc1cnc2nc(N)nc(N)c2n1)c1ccc(C(=O)N[C@@H](CCC(=O)O)C(=O)O)cc1 [Methotrexate, methotrexate]",decrease of synovial cell density,rheumatoid arthritis,approximately 30%
same,decrease of the concentration of IL-6 in synovial tissue,rheumatoid arthritis,93%
same,decrease of the rate of cartilage degradation,rheumatoid arthritis,approximately 15%
Galectin-3: purified recombinant human galectin-3,"induction of chemotactic activity, alone","[2]; healthy donor or RA peripheral blood monocytes, 1, 10 or 100 nM",does not reproducibly induce chemotactic activity
same,monocyte chemotaxis in the presence of 1 ng/ml fMLP,"[2]; single healthy donor, FIG. 14A",increases monocyte chemotaxis in a concentration dependent manner
"MCP-1: Monocyte Chemotactic Protein-1, chemotactic cytokine",migration of monocytes in combination with galectin-3,[2]; single healthy donor,induce migration
"SDF-1: Stromal cell-Derived Factor-1, chemotactic cytokine",migration of monocytes in combination with galectin-3,[2]; single healthy donor,induce migration

# — patent publication US20050158321A1, “Treatment of rheumatoid arthritis with galectin-3 antagonists” (Entelos, Inc., priority 2003, published 2005)
